# Assay results as given in patent US9572862B2, “Methods for promoting lipolysis and oxidation in liver and adipose tissue using catestatin” (The Regents of the University of California, priority 2012, dated 2017).
# No end group written: not given here.
# How the values were obtained:
# liver of Chga-KO mice = assay: Hepatic gene expression by real-time PCR after CST; type: in vivo; conditions: CST 12 days
# Experimental: FIG. 4. Effects of CST on hepatic expression of genes involved in lipogenesis and fatty acid oxidation. Relative mRNA expression of genes involved in fatty acid oxidation in liver of WT and Chga-KO mice after treatment with saline or CST (5 μg/g BW, i.p./day) for 12 days: carnitine palmitoyltransferase 1a (Cpt1α) (A), peroxisome proliferator-activated receptor-alpha (Pparα) (B), acyl-CoA oxidase 1 (Acox1) (C) and uncoupling protein 2 (Ucp2) (D). (E) Relative expression of genes involved in lipogenesis in liver of Chga-KO mice after treatment with saline or CST (5 μg/g BW, i.p./day) for 12 days: sterol regulatory element-binding protein 1 (Srebp-1), peroxisome proliferator-activated receptor-gamma (Pparγ), glycerol-3-phosphate acyltransferase (Gpat4) and Cluster of Differentiation 36 (Cd36).
# RNA was extracted using a kit (RNeasy Plus, Qiagen, Valencia, Calif.) according to the manufacturer's specifications. After DNase digestion, 100 ng of RNA was transcribed into cDNA in a 20-μl reaction using a High Capacity cDNA kit (Invitrogen, Carlsbad, Calif.), analyzed, and amplified. PCR was performed in a 25-μl reaction containing 5 μl of cDNA (one-fifth diluted), 2×SYBR Green PCR Master Mix, and the primers described in Table 1 (400 nM each). Differences in cycle threshold values (ΔCt) between target and the housekeeping gene GAPDH were used to calculate the levels of expression.
# 3T3-L1 adipocytes = assay: cAMP production in 3T3-L1 adipocytes; type: cell-based; conditions: CST 100 nM, ISO 10 μM, 10 min
# DIO mice = assay: CST administration to DIO mice for 16 days; type: in vivo
# Experimental: FIG. 7. Effects of CST administration to DIO and Ob/Ob mice on food intake, body weight, adipose tissue weight, and lipolysis. CST (5 μg/g BW, i.p./day) or saline was administered to DIO and Ob/Ob mice for 16 days. Food intake for DIO mice (A) and Ob/Ob mice (B) was measured every other day. Percent changes in final body weight and WAT mass (as % of body weight) were determined for DIO (C) and Ob/Ob (D) mice. Plasma glycerol (E) and NEFA (F) were quantified for DIO and Ob/Ob mice at the end of CST treatment.
# Adult male (7 month old) WT (31.8±1.2 g) and Chga-KO (39.2±1.5 g) mice in the mixed genetic background (129SvJ×C57BL/6) were studied. Both genotypes were generated from the original founder carrying mixed genotype (50% 129SvJ, 50% C57BL/6) and were maintained by sibling mating. Animals were kept in a 12 hr dark/light cycle and fed standard chow ad libitum. Male C57BL/6 mice, 8 week old, were fed 60% high fat diet (D12492: Research Diets, Inc., New Brunswick) for 16 weeks before using for experiments. Male leptin-deficient (C57BL/6J-Ob/Ob) mice from the Jackson Laboratory were maintained on a standard chow diet. The Institutional Animal Care and Utilization Committee approved all procedures. Chga-KO, DIO and Ob/Ob mice were treated daily with saline or CST (5 μg/g BW, i.p.; 12 days for Chga-KO mice and 16 days for DIO and Ob/Ob mice).
# Mice were fasted for 12 hr prior to blood draw. Triglycerides (TG) and non-esterified fatty acids (NEFA) were assayed using kits from Wako Diagnostics (Richmond, Va.). Glycerol was assayed using a kit from Sigma (St Louis, Mo.). Media from the explant cultures and mouse serum were analysed for glycerol and NEFA as a measure of lipolysis. ELISA kits were used to determine plasma levels of leptin, adiponectin (Millipore, Billerica, Mass.) and CST (Bachem, Torrance, Calif.). For CST assay, plasma samples and reference standards were passed through mini C18 columns and the flow-through fractions were assayed. The same kits were used for measurements in culture media.
# CST-KO mice = assay: ITT in insulin resistant CST-KO mice with CST, RI-CST or NSC-177941; type: in vivo; conditions: ITT in CST-KO mice
# Source text: FIG. 16. […] Figures in parentheses indicate number of animals.
# [1] = reference (8); cited from earlier work
sequence,measurement,setting,value
SSMKLSFRARAYGFRGPGPQL [CST],liver mRNA expression of Acox,liver of Chga-KO mice,augmented
same,liver mRNA expression of Cd36,liver of Chga-KO mice,stimulated
same,liver mRNA expression of Cpt1α,liver of Chga-KO mice,augmented
same,liver mRNA expression of Gpat4,liver of Chga-KO mice,stimulated
same,liver mRNA expression of Pparα,liver of Chga-KO mice,augmented
same,liver mRNA expression of Pparγ,liver of Chga-KO mice,no effect
same,liver mRNA expression of Srebp-1,liver of Chga-KO mice,no effect
same,liver mRNA expression of Ucp2,liver of Chga-KO mice,augmented
same,cAMP production,3T3-L1 adipocytes,not by CST
same,food intake,DIO mice; CST 5 μg/g BW i.p./day 16 days,did not change
same,decrease in adipose tissue mass,DIO mice; CST 16 days,about 2 g
same,plasma concentration of NEFA (lipolysis),DIO mice; CST 16 days,increased
same,plasma concentration of glycerol (lipolysis),DIO mice; CST 16 days,increased
same,persistence of the insulin-sensitizing effect,CST-KO mice,persisted throughout the experimental period
same,protease degradation,[1],susceptible to complete protease degradation
